The subject of experiment [1] is HSV-1 (HFF Cells). Nature of the experiment: HSV-1 cytoprotection assay in HFF cells (crystal violet). As to conditions: Human alphaherpesvirus 1, 72 h, 3 days. In kind it is cell-based, herpes simplex virus type 1.
Experiment [2] deals with HSV-2 (HFF Cells). Nature of the experiment: HSV-2 cytoprotection assay in HFF cells (crystal violet). In kind it is cell-based, herpes simplex virus type 2. To be noted: Human alphaherpesvirus 2, 72 h, 3 days.
Experiment [3] has as its system EBV (Daudi Cells). The experiment is described as follows: EBV VCA ELISA in superinfected Daudi cells. The experiment is classed as cell-based, Epstein-Barr virus. To be noted: human gammaherpesvirus 4, 96 h, 4 days. For orientation: An ELISA detects its analyte on a solid surface through an enzyme-linked reagent.
From the text: The EBV prototype virus used in the assay of this work was P3HR-1, which is derived from supernatant fluids of the P3HR-1 cell line. This cell line produces nontransforming virus that induces the production of early antigen (EA) and viral capsid antigen (VCA) after primary infection or superinfection of B cell lines. Daudi was the test-cell line, which is a low-level producer that contains 152 EBV genome copies per cell. These cells respond to superinfection by EBV by expressing EA and VCA. The cell line was maintained in RPMI-1640 medium supplemented by 10% FBS, L-glutamine and 100 micrograms per milliliter gentamicin. The cultures were fed twice weekly and the cell concentration adjusted to 3×10^5 cells per milliliter. The cells were kept at 37° C. in a humidified atmosphere with 5% CO2.
Daudi cells were infected and treated with humates as described above for HSV, HCMV, and VZV. The cultures were incubated for 4 days at 37° C. The cells were counted, washed and brought to the desired final concentration. For each dilution of humate, cells were added to triplicate wells of a 96-well plate and air-dried. The cells were then fixed for 20 minutes in an acetic acid/ethanol solution. […] The reaction was stopped by adding 3 Normal sulfuric acid, following which the plates were read on a microplate reader at 492 nanometers.
Experiment [4] concerns HCMV (HFF Cells). Nature of the experiment: HCMV cytoprotection assay in HFF cells (crystal violet). In kind it is cell-based, human cytomegalovirus. As to conditions: Human betaherpesvirus 5, 336 h, 14 days.

Values after ≈ are worked out from the molar mass of the structure shown.

This passage reports IC50 and IC90 results from patent publication US6524566B2, “Synthetic soil-extract materials and medicaments for herpes viruses based thereon” (Laub Biochemicals Corp., priority 1997, dated 2003).

As to `Nc1nc2c(ncn2COCCO)c(=O)[nH]1` [Acyclovir], the IC50 lay within 1.2 to 1.6 mg/L (≈ 5.33 to 7.1 µM) in experiment [1], 1.1 to 1.3 mg/L (≈ 4.88 to 5.77 µM) in experiment [2] and 1.8 to 2.4 mg/L (≈ 7.99 to 10.7 µM) in experiment [3]. The IC90 turned out to be 7.9 mg/L (≈ 35.1 µM) in experiment [1] and 9.5 mg/L (≈ 42.2 µM) in experiment [2].
In experiment [4], `Nc1nc(O)c2ncn(COC(CO)CO)c2n1` [Ganciclovir] gave an IC50 of 0.3 to 0.76 mg/L (≈ 1.18 to 2.98 µM) and an IC90 of 0.6 to 1.3 mg/L (≈ 2.35 to 5.09 µM).

The IC50 is the concentration at which inhibition is half-maximal. A high value points to lower potency. As usually defined, the IC90 is the concentration needed for an effect of 90%. Read a low IC90 as an effect from little substance.
